# pIC50: −log10 of the molar value. “And” between values parts separate entries of the source, which are not always exact repeats. Identical values can stand only once.
# Key:
# [1] = tested on: C57BL/6 (B6) male mice; test: Spleen cell populations by flow cytometry in the tolerability study; type: in vivo; settings: for CD4+ spleen cells / CD8+ spleen cells / Cd11b+/Gr-1+ spleen cells: percentage from the CD45+ cells
# Method: (§1) During the experiments, mice behavior and possible apparent signs of toxicity were monitored daily. The body weights were determined on days 0, 4, and 8. On day 8, blood (25 μL) was withdrawn using a capillary pipette containing anticoagulant (heparin) from the retroorbital sinus into EDTA-containing tubes. Basic hematological parameters were measured using the Mindray BC-5300 Vet. Mice were then killed, autopsied, and abdominal organs (spleen, liver, and kidney) were removed for visual examination and imaging by a digital camera. Single-cell suspensions from the spleens were prepared by homogenization through a cell strainer (70 μm; BD Biosciences, San Jose, CA, USA). Erythrocytes were osmotically lysed using ammonium chloride-potassium lysis buffer, and the cell suspensions were washed three times in the RPMI-1640 medium and used for further analysis by flow cytometry for selected cell populations.
# The cellularity of selected spleen cell populations was analyzed by flow cytometry. Cell suspensions were washed and preincubated with anti-CD16/CD32 (2.4G2) antibody to minimize non-specific binding at 4°C for 15 min following the washing step and incubation with labeled primary antibody at 4°C for 30 min. Relevant isotype controls of irrelevant specificity were used. FACS buffer (PBS, 1% FBS, 0.1% NaN3) was used for all washing steps and analysis. The following antibodies were used for FACS analyses: BV421 anti-mouse CD45 (30-F11), PE anti-mouse CD8α (53-6.7), BV711 anti-mouse CD4 (RM4-5), APC anti-mouse Ly-6g/Ly-6C (Gr-1) (RB6-8C5), BV711 anti-mouse CD11b (M1/70). FACS analysis was performed using a flow cytometer Symphony (BD Biosciences) and analyzed using FlowJo 10 software (FlowJo LLC, Ashland, OR, USA).
# [2] = molecular target: T1, mTOR kinase (Homo sapiens, UniProt P42345); test: In vitro mTOR kinase enzyme assay (Transcreener ADP2 FI); type: biochemical
# T1 construct: purchased Invitrogen
# Method: The mTOR enzyme assay was used to determine the mTOR kinase activity of compound 3. Enzymatic reaction mixture was prepared as follows: mTOR enzyme (10 μg/mL, Invitrogen), ATP (10 μM), p70S6K peptide (10 μg/mL, SignalChem), and kinase buffer (50 mM HEPES, pH 7.5, 1 mM EGTA, 3 mM MnCl2, 10 mM MgCl2, 2 mM DTT, and 0.01% Tween-20). The reaction was performed in black half-area 96-wells at room temperature for 1 h, then stopped by adding ADP detection buffer (Transcreener ADP^2 FI Assay, BellBrook labs) and incubated at room temperature for 1 h. Compound concentration was 10, 20, 40, 80, and 100 μM. The final DMSO concentration was 1%. PHERAstar microplate reader was used for measuring the fluorescence intensity (excitation 575 nm, emission 620 nm).
# [3] = tested on: TMZ-U87 cells; test: Time-lapse microscopy with annexin V of TMZ-induced senescent U87; type: cell-based, human; settings: 0–100 μM, 72 h
# Method: To obtain ionizing radiation (IR)-induced senescent cells, proliferating RPE-1 cells were exposed to a single dose of X-rays (20 Gy) using Pantak HF160 (Gulmay, Surrey, UK) X-ray instrument equipped with Pantak Seifert HF320 generator, MXR-161 X-ray tube (Comet AG, Flamatt, Switzerland), and an aluminum filter using current 1–10 mA. After irradiation, the cells were cultured for an additional 7 days until the development of the senescent phenotype ([Salovska et al., 2022]). To induce docetaxel-induced senescence (DIS), BJ cells were exposed to 5 nM docetaxel for 7 days, as described previously ([Sapega et al., 2018]). To prepare temozolomide (TMZ)-induced senescence, U87 cells were exposed to 100 μM TMZ for 14 days.
# For auto-monitoring of cells, Incucyte SX1 Live-Cell Analysis System (Sartorius, Göttingen, Germany), located in an incubator maintained at 37°C under a 5% CO2 atmosphere and 95% humidity, was utilized. The images (1,408 × 1,040 pixels at 1.24 microns/pixel) were acquired using a 10× objective lens in phase contrast, red fluorescence (excitation: 585 ± 20 nm, emission: 635 [625, 705] nm, acquisition time: 100 ms) channels every 60 min during 72 h. The first image was acquired 30 min after adding compounds. The images were processed to measure cell confluence using Incucyte software (version 2022A). […]
# [4] = tested on: C57BL/6 (B6) male mice; test: Blood counts in the tolerability study; type: in vivo; settings: for MPV: mice, blood day 8, AVG; for Eos / HGB / HOT / MCH / MCHC / MCV / Mon / Neu / PCT / PDW / PLT / RBC / RDW-CV / RDW-SD / WBC / lvm: mouse, in vivo, po
# Method: Compounds were dissolved in 20 μL DMSO and completed into 200 μL with corn oil.
# as §1
structure (smiles),measurement,setting,value
"Nc1ccc(C(=O)Nc2cccc(-c3c[nH]c4ncccc34)c2)cc1O [Compound 3, N-(3-(1H-pyrrolo[2,3-b]pyridin-3-yl)phenyl)-4-amino-3-hydroxybenzamide]",CD45+ spleen cells,"[1]; 5 mg/kg p.o. days 0, 3, 5, spleen day 8",94.3%
same,CD4+ spleen cells,[1]; 5 mg/kg p.o.,19.0%
same,CD8+ spleen cells,[1]; 5 mg/kg p.o.,11.4%
same,Cd11b+/Gr-1+ spleen cells,[1]; 5 mg/kg p.o.,0.7%
same,CD45+ spleen cells,"[1]; 25 mg/kg p.o. days 0, 3, 5, spleen day 8",95.9%
same,CD4+ spleen cells,[1]; 25 mg/kg p.o.,15.9%
same,CD8+ spleen cells,[1]; 25 mg/kg p.o.,9.6%
same,Cd11b+/Gr-1+ spleen cells,[1]; 25 mg/kg p.o.,1.0%
same,CD45+ spleen cells,"[1]; 50 mg/kg p.o. days 0, 3, 5, spleen day 8",97.2%
same,CD4+ spleen cells,[1]; 50 mg/kg p.o.,16.0%
same,CD8+ spleen cells,[1]; 50 mg/kg p.o.,9.8%
same,Cd11b+/Gr-1+ spleen cells,[1]; 50 mg/kg p.o.,0.8%
same,pIC50,"[2]; ATP 10 μM, p70S6K peptide, 1 h",~4.15 and 4.15
same,inhibition of mTOR kinase activity,[2]; at 100 μM,complete inhibition
same,concentration from which mTOR kinase activity is inhibited,"[2]; tested at 10, 20, 40, 80, 100 μM",10 µM
same,"cell phenotype in time-lapse microscopy, annexin V staining",[3],loss of cell adhesion followed by cell death
same,MPV,"[4]; 5 mg/kg p.o. days 0, 3, 5",5.67
same,MPV,"[4]; 25 mg/kg p.o. days 0, 3, 5",5.37
same,MPV,"[4]; 50 mg/kg p.o. days 0, 3, 5",5.20
same,Eos,[4]; 5 mg/kg,0.88
same,HGB,[4]; 5 mg/kg,131.00
same,HOT,[4]; 5 mg/kg,0.44
same,MCH,[4]; 5 mg/kg,15.90
same,MCHC,[4]; 5 mg/kg,296.33
same,MCV,[4]; 5 mg/kg,53.70
same,Mon,[4]; 5 mg/kg,0.39 10^9/L
same,Neu,[4]; 5 mg/kg,1.65
same,PCT,[4]; 5 mg/kg,3.88
same,PDW,[4]; 5 mg/kg,15.20
same,PLT,[4]; 5 mg/kg,677.33
same,RBC,[4]; 5 mg/kg,8.28 10^12/L
same,RDW-CV,[4]; 5 mg/kg,0.14
same,RDW-SD,[4]; 5 mg/kg,31.27
same,WBC,[4]; 5 mg/kg,12.56
same,lvm,[4]; 5 mg/kg,9.60
same,Eos,[4]; 25 mg/kg,0.74
same,HGB,[4]; 25 mg/kg,136.00
same,HOT,[4]; 25 mg/kg,0.46
same,MCH,[4]; 25 mg/kg,15.53
same,MCHC,[4]; 25 mg/kg,294.00
same,MCV,[4]; 25 mg/kg,52.77
same,Mon,[4]; 25 mg/kg,0.52 10^9/L
same,Neu,[4]; 25 mg/kg,1.47
same,PCT,[4]; 25 mg/kg,1.77
same,PDW,[4]; 25 mg/kg,14.93
same,PLT,[4]; 25 mg/kg,330.00
same,RBC,[4]; 25 mg/kg,8.76 10^12/L
same,RDW-CV,[4]; 25 mg/kg,0.15
same,RDW-SD,[4]; 25 mg/kg,32.23
same,WBC,[4]; 25 mg/kg,11.49
same,lvm,[4]; 25 mg/kg,8.71
same,Eos,[4]; 50 mg/kg,0.43
same,HGB,[4]; 50 mg/kg,150.67
same,HOT,[4]; 50 mg/kg,0.52
same,MCH,[4]; 50 mg/kg,15.10
same,MCHC,[4]; 50 mg/kg,289.33
same,MCV,[4]; 50 mg/kg,52.07
same,Mon,[4]; 50 mg/kg,0.72 10^9/L
same,Neu,[4]; 50 mg/kg,0.86
same,PCT,[4]; 50 mg/kg,3.92
same,PDW,[4]; 50 mg/kg,14.70
same,PLT,[4]; 50 mg/kg,751.67
same,RBC,[4]; 50 mg/kg,9.99 10^12/L
same,RDW-CV,[4]; 50 mg/kg,0.13
same,RDW-SD,[4]; 50 mg/kg,29.03
same,WBC,[4]; 50 mg/kg,8.25
same,lvm,[4]; 50 mg/kg,6.23

# Reference: article PMC9767416, “Discovery of small molecule mechanistic target of rapamycin inhibitors as anti-aging and anti-cancer therapeutics” (Frontiers in Aging Neuroscience, 2022)
